Values after ≈ are worked out from the molar mass of the structure shown. Active and inactive are the calls of the source. No cut-off for these calls is given here.
Tests used:
[1] = tested on: H9; assay: Cytotoxicity against human H9 cells; assay type: cell-based
[2] = tested on: Human immunodeficiency virus 1; assay: Antiviral activity against HIV1 in human H9 cells assessed as inhibition of viral replication; assay type: functional, organism-based; details: for EC50: Human immunodeficiency virus 1, H9
[3] = Therapeutic index, ratio of IC50 for human H9 cells to EC50 for HIV1; assay type: cell-based; details: read-out: Ratio IC50/EC50

Compound | EC50 [2] [µg/mL] | IC50 [1] [µg/mL] | Activity [2] | selectivity ratio [3]
CC(=O)OC[C@]12[C@H](OC(C)=O)[C@H](OC(C)=O)[C@@H]3[C@@H](OC(C)=O)[C@@]14O[C@@]3(C)COC(=O)c1cccnc1CCC(C)C(=O)O[C@@H]([C@H](OC(=O)c1ccccc1)[C@@H]2OC(C)=O)[C@]4(C)O (some centres undefined) [WILFORINE] | – | > 100 | inactive | –
CC(=O)OC[C@]12[C@H](OC(C)=O)[C@H](OC(C)=O)[C@@H]3[C@@H](OC(C)=O)[C@@]14O[C@@]3(C)COC(=O)c1cccnc1CCC(C)C(=O)O[C@@H]([C@H](OC(=O)c1ccco1)[C@@H]2OC(C)=O)[C@]4(C)O (some centres undefined) [WILFORGINE] | – | > 100 | inactive | –
CC(=O)OC[C@]12[C@H](OC(C)=O)[C@H](OC(C)=O)[C@@H]3[C@@H](OC(=O)c4ccccc4)[C@@]14O[C@@]3(C)COC(=O)c1cccnc1C(C)C(C)C(=O)O[C@@H]([C@H](OC(C)=O)[C@@H]2OC(C)=O)[C@]4(C)O (some centres undefined) | 0.9 (≈ 1.04 µM) | 56.8 (≈ 65.4 µM) | – | 63.4
COC(=O)C[C@@H]1C(=O)CC[C@H](C)C(=O)O[C@@H]2[C@@H]3[C@@H](OC(C)=O)[C@@]45O[C@@]3(C)COC(=O)c3cnccc3[C@@H](C)[C@@](C)(O)C(=O)O[C@@H]([C@H](OC(C)=O)[C@H](OC(C)=O)[C@@]4(COC1=O)[C@@H]2OC(C)=O)[C@]5(C)O | < 0.1 | > 100 | – | > 1000
CC(=O)OC[C@]12[C@H](OC(C)=O)[C@H](OC(C)=O)[C@@H]3[C@@H](OC(C)=O)[C@@]14O[C@@]3(C)COC(=O)c1cccnc1C(C)C(C)C(=O)O[C@@H]([C@H](OC(C)=O)[C@@H]2OC(C)=O)[C@]4(C)O (some centres undefined) [EUONYMINE] | 0.203 (≈ 0.252 µM) | 22.8 (≈ 28.3 µM) | – | 113
CC(=O)OC[C@]12[C@H](OC(C)=O)[C@H](OC(C)=O)[C@@H]3[C@@H](OC(C)=O)[C@@]14O[C@@]3(C)COC(=O)c1cccnc1CCC(C)(O)C(=O)O[C@@H]([C@H](OC(=O)c1ccccc1)[C@@H]2OC(C)=O)[C@]4(C)O (some centres undefined) [WILFORDINE] | < 0.1 | 20 (≈ 22.6 µM) | – | > 220
CC(=O)OC[C@]12[C@H](OC(C)=O)[C@H](OC(C)=O)[C@@H]3[C@@H](OC(C)=O)[C@@]14O[C@@]3(C)COC(=O)c1cccnc1CCC(C)(O)C(=O)O[C@@H]([C@H](OC(=O)c1ccco1)[C@@H]2OC(C)=O)[C@]4(C)O (some centres undefined) [WILFORTRINE] | < 0.1 | > 100 | – | > 1000
CC(=O)O[C@@H]1[C@@H]2[C@@H](OC(C)=O)[C@@]34O[C@@]2(C)COC(=O)c2cnccc2C(C)C(C)C(=O)O[C@@H]([C@H](OC(C)=O)[C@H](OC(C)=O)[C@@]3(COC(=O)c2ccco2)[C@@H]1OC(C)=O)[C@]4(C)O (some centres undefined) [HYPOGLAUNINE D] | – | 22.2 (≈ 25.9 µM) | inactive | –
CC(=O)OC[C@]12[C@H](OC(C)=O)[C@H](OC(C)=O)[C@@H]3[C@@H](OC(=O)c4ccccc4)[C@@]14O[C@@]3(C)COC(=O)c1cccnc1C(C)C(C)C(=O)O[C@@H]([C@H](OC(=O)c1cccnc1)[C@@H]2OC(C)=O)[C@]4(C)O (some centres undefined) [HYPONINE D] | – | 20.2 (≈ 21.7 µM) | inactive | –

Second part, led by results:

EC50 [2] [µg/mL] | Compound | IC50 [1] [µg/mL] | Activity [2] | selectivity ratio [3]
0.1 (≈ 0.123 µM) | CC(=O)O[C@@H]1[C@H](OC(C)=O)[C@@]2(COC(=O)c3ccco3)[C@H](OC(C)=O)C(=O)[C@@H]3[C@@H](OC(C)=O)[C@@]24O[C@@]3(C)COC(=O)c2cccnc2C(C)C(C)C(=O)O[C@@H]1[C@]4(C)O (some centres undefined) [HYPONINE B] | > 100 | – | > 1000
35.2 (≈ 41 µM) | CC(=O)OC[C@]12[C@H](OC(C)=O)[C@H](OC(C)=O)[C@@H]3[C@@H](OC(C)=O)[C@@]14O[C@@]3(C)COC(=O)c1cccnc1C(C)C(C)C(=O)O[C@@H]([C@H](OC(=O)c1ccco1)[C@@H]2OC(C)=O)[C@]4(C)O (some centres undefined) [HYPONINE F] | > 100 | – | > 2.84
0.012 (≈ 0.0449 µM) | Cc1cn([C@H]2C[C@H](N=[N+]=[N-])[C@@H](CO)O2)c(=O)[nH]c1=O [ZIDOVUDINE] | – | – | –
1 (≈ 1.17 µM) | CC(=O)OC[C@]12[C@H](OC(C)=O)[C@H](OC(C)=O)[C@@H]3[C@@H](OC(=O)c4ccco4)[C@@]14O[C@@]3(C)COC(=O)c1cccnc1C(C)C(C)C(=O)O[C@@H]([C@H](OC(C)=O)[C@@H]2OC(C)=O)[C@]4(C)O (some centres undefined) [HYPONINE A] | 27.7 (≈ 32.3 µM) | – | 27.7
0.503 (≈ 0.66 µM) | CC(=O)OC[C@]12[C@H](OC(C)=O)C(=O)[C@@H]3[C@@H](OC(C)=O)[C@@]14O[C@@]3(C)COC(=O)c1cccnc1C(C)C(C)C(=O)O[C@@H]([C@H](OC(C)=O)[C@@H]2OC(C)=O)[C@]4(C)O (some centres undefined) [EVONINE] | 21.2 (≈ 27.8 µM) | – | 42.1
0.13 (≈ 0.149 µM) | CC(=O)O[C@@H]1[C@@H]2[C@@H](OC(C)=O)[C@@]34O[C@@]2(C)COC(=O)c2cnccc2C(C)C(C)(O)C(=O)O[C@@H]([C@H](OC(C)=O)[C@H](OC(C)=O)[C@@]3(COC(=O)c2ccco2)[C@@H]1OC(C)=O)[C@]4(C)O (some centres undefined) [HYPOGLAUNINE A] | > 100 | – | > 769
0.884 (≈ 1.16 µM) | CC(=O)OC[C@]12[C@H](OC(C)=O)[C@H](OC(C)=O)[C@@H]3[C@@H](O)[C@@]14O[C@@]3(C)COC(=O)c1cccnc1C(C)C(C)C(=O)O[C@@H]([C@H](OC(C)=O)[C@@H]2OC(C)=O)[C@]4(C)O (some centres undefined) [NEOEUONYMINE] | > 100 | – | > 113
0.1 (≈ 0.114 µM) | CC(=O)OC[C@]12[C@H](OC(C)=O)[C@H](OC(C)=O)[C@@H]3[C@@H](OC(C)=O)[C@@]14O[C@@]3(C)COC(=O)c1cnccc1C(C)C(C)(O)C(=O)O[C@@H]([C@H](OC(=O)c1ccco1)[C@@H]2OC(C)=O)[C@]4(C)O (some centres undefined) [HYPOGLAUNINE B] | > 100 | – | > 1000
0.17 (≈ 0.185 µM) | CC(=O)OC[C@]12[C@H](OC(C)=O)[C@H](OC(=O)c3cccnc3)[C@@H]3[C@@H](OC(=O)c4ccco4)[C@@]14O[C@@]3(C)COC(=O)c1cccnc1C(C)C(C)C(=O)O[C@@H]([C@H](OC(C)=O)[C@@H]2OC(C)=O)[C@]4(C)O (some centres undefined) [HYPONINE E] | 1.95 (≈ 2.12 µM) | – | 11.3
0.48 (≈ 0.553 µM) | CC(=O)OC[C@]12[C@H](OC(C)=O)[C@H](OC(C)=O)[C@@H]3[C@@H](OC(C)=O)[C@@]14O[C@@]3(C)COC(=O)c1cccnc1C(C)C(C)C(=O)O[C@@H]([C@H](OC(=O)c1ccccc1)[C@@H]2OC(C)=O)[C@@]4(C)O (some centres undefined) [FORRESTINE] | > 100 | – | > 208
2.54 (≈ 2.69 µM) | COC(=O)C[C@@H]1C(=O)CCC(C)C(=O)O[C@@H]2[C@@H]3[C@@H](OC(C)=O)[C@@]45O[C@@]3(C)COC(=O)c3cccnc3C(C)C(C)C(=O)O[C@@H]([C@H](OC(C)=O)[C@H](OC(C)=O)[C@@]4(COC1=O)[C@@H]2OC(C)=O)[C@]5(C)O (some centres undefined) [TRIPTONINE A] | > 100 | – | > 39.4
